This passage reports log10CFU/g results from ChEMBL document CHEMBL1154419, “Pharmacodynamic effects of telavancin against methicillin-resistant and methicillin-susceptible Staphylococcus aureus strains in the presence of human albumin or serum and in an in vitro kinetic model” (Antimicrob Agents Chemother, 2007).

The subject of the test is Staphylococcus aureus. In words: Antibacterial activity against methicillin-resistant Staphylococcus aureus COL infected New Zealand white rabbit endocarditis model assessed as reduction in mean aortic vegetation titer at 30 mg/kg, iv twice daily after 4 days. Type of test: functional, Aorta.

For the compound `CN[C@H](CC(C)C)C(=O)N[C@H]1C(=O)N[C@@H](CC(N)=O)C(=O)N[C@H]2C(=O)N[C@H]3C(=O)N[C@H](C(=O)N[C@H](C(=O)O)c4cc(O)cc(O)c4-c4cc3ccc4O)[C@H](O)c3ccc(c(Cl)c3)Oc3cc2cc(c3O[C@@H]2O[C@H](CO)[C@@H](O)[C@H](O)[C@H]2O[C@H]2C[C@](C)(N)[C@H](O)[C@H](C)O2)Oc2ccc(cc2Cl)[C@H]1O` [VANCOMYCIN], the log10CFU/g was found to be 3.4.
